Test [1] concerns Jurkat cells. Description: Inhibition of calcium entry into Jurkat cells (indo-1 fluorescence). Format: cell-based, human. The method, then:
Cells were incubated in growth media containing 1 uM of the acetoxy-methyl ester of the Ca2+-sensitive fluorescent dye indo-1 (indo-1/AM; Molecular Probes, Eugene, Oreg.) for 1 h at 37° C. Cells were washed three times in buffer A [10 mM HEPES (pH 7.4), 1 mM MgCl2, 3 mM KCl, 1 mM CaCl2, 140 mM NaCl, 0.1% glucose, and 1% fetal bovine serum] and suspended to a final concentration of 10^6 cells/ml. Before stimulation, cells were warmed to 37° C. Changes in [Ca2+]i were monitored in an SLM […] spectrofluorimeter (SLM/Aminco; Urbana, Ill.) using previously published methods ([…]., Szabo, G., and Gray, L. S. 1996. A voltage operable current is involved in activation-induced Ca^2+ entry in human lymphocytes whereas ICRAC has no apparent role. Am. J. Physiol. 271:[…]., and Gray, L. S. 1998. Calmodulin regulation of Ca^2+ entry in Jurkat T cells. Cell Calcium 23:361-368).

For test [2], the system named is Jurkat cells. As to the kind of experiment: Inhibition of proliferation of Jurkat cells. Format: cell-based, human. The protocol: (§1) Cancer cell lines were obtained from the American Type Culture Collection (Manassas, Va.). Cell lines were maintained in RPMI1640 supplemented with glutamine and 5% fetal bovine serum containing SerXtend (Irvine Scientific) when appropriate insulin, as directed by the ATCC. The fetal bovine serum used for culture was heat-inactivated by maintaining the serum at 56° C. for 1 h. Cell lines used were a T celleukemia (Jurkat), prostate cancer (PC3, DU145, LNCAP), breast cancer (MDA468, MDA361, MCF7), pancreatic cancer (MIA PaCa2), liver cancer (Hep G2), lung cancer (A549, NCl H460), colon cancer (HT29, HCT 116), and ovarian cancer (SK-OV-3).
(§2) LNCaP cells at 2.5×10^4 cells/well or PC-3 cells at 5×10^4 cells/well, both in a final volume of […], were plated in triplicate in standard flat-bottomed 96-well tissue culture plates in the presence of drug or vehicle (DMSO). Unless otherwise indicated, cells were grown for 48 h at 37° C. in a CO2 incubator. Relative cell growth was determined with the CellTiter 96 aqueous cell proliferation assay (Promega, Madison, Wis.) as described by the manufacturer using an automated plate reader. Results were calculated in a blinded fashion and are the means of triplicate determinations.

Test [3] concerns PC3 cells. As to the kind of experiment: Inhibition of proliferation of PC3 cells. Format: cell-based, human. As to conditions: Homo sapiens, PC-3, PC3, read-out: prolif: IC50 for inhibition of proliferation, PC3. The protocol: as §1, §2
For test [4], the system named is MDA-231 cells. Description: Inhibition of proliferation of MDA-231 cells. In kind it is cell-based. The conditions noted are these: Homo sapiens, read-out: prolif: IC50 for inhibition of proliferation, MDA-231.
For test [5], the system named is MDA-231 cells. Description: Inhibition of calcium entry into MDA-231 cells. Format: cell-based. The conditions noted are these: Homo sapiens, MDA-MB-231, NE = no effect at highest concentration of drug tested, read-out: Ca2+: IC50 for inhibition of calcium entry, MDA-231. The method, then: (§3) Cells were incubated in growth media containing 1 uM of the acetoxy-methyl ester of the Ca2+-sensitive fluorescent dye indo-1 (indo-1/AM; Molecular Probes, Eugene, Oreg.) for 1 h at 37° C. Cells were washed three times in buffer A [10 mM HEPES (pH 7.4), 1 mM MgCl2, 3 mM KCl, 1 mM CaCl2, 140 mM NaCl, 0.1% glucose, and 1% fetal bovine serum] and suspended to a final concentration of 10^6 cells/ml. Before stimulation, cells were warmed to 37° C. Changes in [Ca2+]i were monitored in an SLM 8100C spectrofluorimeter (SLM/Aminco; Urbana, Ill.) using previously published methods (Densmore, J. J., Haverstick, D. M., Szabo, G., and Gray, L. S. 1996. A voltage operable current is involved in activation-induced Ca^2+ entry in human lymphocytes whereas ICRAC has no apparent role. Am. J. Physiol. 271:C1494-C1503; Haverstick, D. M., Densmore, J. J., and Gray, L. S. 1998. Calmodulin regulation of Ca^2+ entry in Jurkat T cells. Cell Calcium 23:361-368).

In test [6] the test system is MDA-435 cells. Description: Inhibition of proliferation of MDA-435 cells. As to conditions: read-out: prolif: IC50 for inhibition of proliferation, MDA-435. In kind it is cell-based.
For test [7], the system named is LNCaP cells. As to the kind of experiment: Inhibition of proliferation of LNCaP cells. The conditions noted are these: Homo sapiens, read-out: prolif: IC50 for inhibition of proliferation, LNCaP. In kind it is cell-based. The method, then:
as §1, §2

For test [8], the system named is MDA-361 cells. As to the kind of experiment: Inhibition of proliferation of MDA-361 cells. Format: cell-based. The conditions noted are these: MDA361, NE = no effect at highest concentration of drug tested, read-out: prolif: IC50 for inhibition of proliferation, MDA-361. The protocol: as §1, §2
For test [9], the system named is LNCaP cells. As to the kind of experiment: Inhibition of calcium entry into LNCaP cells. In kind it is cell-based. The conditions noted are these: Homo sapiens, NE = no effect at highest concentration of drug tested, read-out: Ca2+: IC50 for inhibition of calcium entry, LNCaP. The method, then:
as §3

[10] abbreviates: Homo sapiens, Jurkat cell line, Tables 1 and 2, unit inferred, read-out: IC50 for inhibition of Ca^2+ entry.
Setting [11] is: Homo sapiens, Jurkat cell line, Tables 1 and 2, unit inferred, read-out: IC50 for inhibition of proliferation.
Setting [12] is: Jurkat cell line, Tables 1 and 2, unit inferred, read-out: IC50 for inhibition of Ca^2+ entry.
[13] abbreviates: Jurkat cell line, Tables 1 and 2, unit inferred, read-out: IC50 for inhibition of proliferation.
Setting [14] is: NE = no effect at highest concentration of drug tested.
Setting [15] is: MDA-MB-231, NE = no effect at highest concentration of drug tested.
Setting [16] is: MDA435, NE = no effect at highest concentration of drug tested.
Where [17] appears, read: Homo sapiens, Jurkat, NE = no effect at highest concentration of drug tested, read-out: Ca2+: IC50 for inhibition of calcium entry, Jurkat.
[18] abbreviates: Homo sapiens, Jurkat, NE = no effect at highest concentration of drug tested, read-out: prolif: IC50 for inhibition of proliferation, Jurkat.

Where two headings read alike, the source gives them in different places.

As to `COC(=O)C1=C(C)NC(C)=C(C(=O)OCCN(C)Cc2ccccc2)C1c1cccc([N+](=O)[O-])c1` (stereo not shown) [Nicardipine], the IC50 in test [1] (setting [10]) was determined as 10 µM; in test [2] (setting [11]) it was 30 µM.
Take `COC(=O)C1=C(C)NC(C)=C(C(=O)OC(C)C)C1c1cccc2nonc12` (stereo not shown) [Isradipine]: the IC50 in [1] (setting [10]) stood at 10 µM; in [2] (setting [11]), 100 µM.
In the case of `COc1ccc2cc1Oc1ccc(cc1)C[C@H]1c3cc(c(OC)cc3CCN1C)Oc1c(OC)c(OC)cc3c1[C@H](C2)N(C)CC3` [Tetrandrine], the IC50 in test [1] (setting [10]) is 10 µM; in [2] (setting [11]) it was 3 µM.
Turning to `CC(Cc1ccc(O)c(O)c1)C(C)Cc1ccc(O)c(O)c1` (stereo not shown) [NDGA, Nordihydroguaiaretic acid], the IC50 in test [1] (setting [12]) was 10 µM; in test [2] (setting [13]), 30 µM.
For the compound Prenylamine lactate, the IC50 in test [1] (setting [12]) and in test [2] (setting [13]) was 10 µM throughout.
On to `CN(C)CCCN1c2ccccc2Sc2ccccc21` [Promazine], for which the IC50 came to 10 µM in test [1] (setting [10]) and 30 µM in test [2] (setting [11]).
With `C[C@H](CCC(=O)O)C[C@H](C)C[C@H](C)C(=O)/C=C(\O)[C@H](C)C[C@H](C)C/C=C/[C@@H](C)[C@@H](O)[C@@H](C)[C@@H](O)C[C@@H]1CC[C@@](C)([C@H]2CC[C@@](C)([C@@H](C)O)O2)O1` [ionomycin], in test [2] (30 nM ionomycin alone, Jurkat), the “effect on proliferation of ionomycin alone” value is on record as “no effect”.
Consider `CC(C)COCC(CN(Cc1ccccc1)c1ccccc1)N1CCCC1` (stereo not shown) [Bepridil], for which the IC50 in [1] (setting [10]) amounted to 5 µM; in [2] (setting [11]) it was 10 µM.
Take `COc1ccc(CCCNCCCC(c2ccccc2)c2ccc(Cl)cc2)cc1` (stereo not shown) [Compound 3.3]: the IC50 in test [3] (setting [14]) is more than 0.1 mM; in [4] (setting [15]), more than 0.1 mM; in test [5] it was 100 µM; in test [6] (setting [16]), more than 0.1 mM; in [1] (setting [17]) it was 60 µM; in test [7] (setting [14]), 0.042 mM. In [2] (setting [18]), the IC50 stood at 70 µM.
In the case of `O=c1[nH]c2ccccc2n1C1CCN(CCCC(c2ccc(F)cc2)c2ccc(F)cc2)CC1` [Pimozide], the IC50 in test [1] (setting [10]) and in [2] (setting [11]) was more than 100 µM each time.
On to `COc1ccc(COCCOC(c2ccccc2)c2ccc(Cl)cc2)cc1` (stereo not shown) [Compound 3.7], for which the IC50 in [3] (setting [14]) was more than 0.1 mM; in test [4] (setting [15]) it was more than 0.1 mM; in test [5] it was 60 µM; in test [6] (setting [16]), more than 0.1 mM; in test [8], more than 100 µM; in test [1] (setting [17]) it was 10 µM. Also, the IC50 in test [7] (setting [14]) was approximately 0.1 mM; in [2] (setting [18]) it was approximately 100 µM.
As to `COCCOC(=O)C1=C(C)NC(C)=C(C(=O)OC(C)C)C1c1cccc([N+](=O)[O-])c1` (stereo not shown) [Nimpodipine], the IC50 in test [1] (setting [12]) and in test [2] (setting [13]) was more than 100 µM throughout.
For `COc1ccc(CCCCCNCC(c2ccccc2)c2ccc(Cl)cc2)cc1` (stereo not shown) [Compound 3.22], the IC50 worked out at 0.009 mM in test [3] (setting [14]); 0.025 mM in test [4] (setting [15]); 10 µM in test [5]; 0.04 mM in [6] (setting [16]); 3 µM in test [1] (setting [17]); 0.009 mM in test [7] (setting [14]). Besides, the IC50 in test [2] (setting [18]) came to 13 µM.
`O=C(O)c1cccnc1Nc1cccc(C(F)(F)F)c1` [Niflumic acid]: the IC50 in test [1] (setting [10]) was 50 µM; in test [2] (setting [11]), 100 µM.
On the same counts, the results for `CC(NCCC(c1ccccc1)c1ccccc1)c1ccccc1` (stereo not shown) [Fendiline] are 10 µM and 30 µM.
For `COc1ccc2c(c1)N(C[C@H](C)CN(C)C)c1ccccc1S2` [Methotrimeprazine], the IC50 in test [1] (setting [10]) stood at 10 µM; in test [2] (setting [11]), 30 µM.
In the case of `C1CCC(C(CC2CCCCN2)C2CCCCC2)CC1` (stereo not shown) [Perhexiline], the IC50 in test [1] (setting [10]) stood at 5 µM; in test [2] (setting [11]), 10 µM.
`COc1ccc(CC[N+](C)(C)CCOC(c2ccccc2)c2ccc(Cl)cc2)cc1` (stereo not shown) [Compound 3.16]: the IC50 in [3] (setting [14]) turned out to be 0.055 mM; in test [4] (setting [15]) it was 0.021 mM; in [6] (setting [16]) it was 0.05 mM; in test [8], 8 µM; in test [1] (setting [17]), 30 µM; in test [9], 10 µM. In addition, the IC50 in test [7] (setting [14]) worked out at 0.033 mM; in test [2] (setting [18]), 23 µM.
In the case of `COc1ccc(CCCCCCNC(c2ccccc2)c2ccc(Cl)cc2)cc1` (stereo not shown) [Compound 3.23], the IC50 in test [3] (setting [14]) is more than 0.1 mM; in test [4] (setting [15]), more than 0.1 mM; in [6] (setting [16]), more than 0.1 mM; in test [7] (setting [14]), approximately 0.1 mM; in test [2] (setting [18]), approximately 30 µM.
For `CC(CN1c2ccccc2Sc2ccccc21)N(C)C` (stereo not shown) [Promethazine], the IC50 in [1] (setting [10]) amounted to 60 µM; in test [2] (setting [11]), 4 µM.
On to `Cc1cccc(CN2CCN(C(c3ccccc3)c3ccc(Cl)cc3)CC2)c1` (stereo not shown) [Meclizine], for which the IC50 in test [1] (setting [10]) and in test [2] (setting [11]) was 30 µM each time.
For `CC(NC(C)(C)C)C(=O)c1cccc(Cl)c1` (stereo not shown) [Bupropion], the IC50 in test [1] (setting [10]) and in test [2] (setting [11]) was more than 100 µM in each case.
For `CN1CCN(C(c2ccccc2)c2ccc(Cl)cc2)CC1` (stereo not shown) [Chlorcyclizine], the IC50 in [1] (setting [10]) came out at 25 µM; in [2] (setting [11]), 90 µM.
Consider `CCN(CC)C(C)CN1c2ccccc2Sc2ccccc21` (stereo not shown) [Ethopropazine], for which the IC50 in test [1] (setting [10]) is 10 µM; in [2] (setting [11]), 30 µM.
The corresponding values for `Cc1cccc(C)c1NC(=O)CN1CCN(CCCC(c2ccc(F)cc2)c2ccc(F)cc2)CC1` [Lidoflazine] are 5 µM and 10 µM.
On to `CCC(=O)c1ccc2c(c1)N(CC(C)N(C)C)c1ccccc1S2` (stereo not shown) [Propiomazine], for which the IC50 in [1] (setting [10]) and in test [2] (setting [11]) was 30 µM throughout.
Regarding `COc1ccc(CCNc2ccccc2COC(c2ccccc2)c2ccc(Cl)cc2)cc1` (stereo not shown) [Compound 3.10], the IC50 is more than 1 mM in test [3] (mM); more than 1 mM in test [4] (MDA-MB-231, mM); more than 1 mM in test [6] (MDA435, mM); approximately 70 µM in [8]; more than 1 mM in test [7] (mM); more than 300 µM in [2] (setting [18]).
